Data taken from US20120277165A1, “METHODS OF MODULATING FUCOSYLATION OF GLYCOPROTEINS” (priority 2009, published 2012).

How the values were obtained:
[1] = system: Lec 13.6 A cells (CHO cells deficient in GDP-mannose 4,6, dehydratase) expressing CTLA4Ig; assay: GDP-fucose levels in CHO cells (nucleotide sugar extraction, RP chromatography, UV); assay type: cell-based, Chinese hamster; conditions: relative to wild-type CHO = 100
Method: (§1) The levels of GDP-fucose levels and the degree of protein fucosylation on glycoproteins were analyzed for three different CHO cell lines expressing a representative secreted protein product (CTLA4Ig): CHO cells that are deficient in the enzyme GDP-mannose 4,6, dehydratase (Lec 13.6 A); CHO cells that have lowered levels of GDP-fucose (Lec 2); and wild-type CHO cells. […] Cells were harvested, and snap frozen, while culture supernatant was harvested and CTLA4Ig harvested by protein A purification for subsequent analysis. Cells were then subjected to nucleotide sugar extraction using standard methods. In short with chloroform:methanol:water (2:4:1), the pellets discarded and the resulting extraction dried down. The dried material was subsequently resuspended in 500 ul of 10% butanol in water and then extracted with 1 ml of 90% butanol in water. […] For quantification, sugar-nucletides were resolved with RP chromatography.
(§2) Protein products were isolated from culture supernatant by protein A affinity, and subjected to PNGase F treatment to remove glycans. The resulting glycans were isolated by PGC chromatography and subsequently analyzed by MALDI mass spectrometry. The % fucosylation was determined by determining the ratio of the glycans with or without core fucosylation. GDP-fucose levels are indicated in peak area as detected by UV.

[2] = system: Lec 13.6 A cells (CHO cells deficient in GDP-mannose 4,6, dehydratase) expressing CTLA4Ig; assay: Degree of core fucosylation of glycans on secreted CTLA4Ig (PNGase F, MALDI mass spectrometry); assay type: cell-based, Chinese hamster; conditions: CTLA4Ig from Lec 13.6A cells
Method: as §1, §2

[3] = 0.01 mM exogenous fucose in culture media
[4] = 1 mM exogenous fucose in culture media

SMILES: C[C@H](O)[C@@H](O)[C@@H](O)[C@H](O)C=O [fucose]
- % of Parental GDP-fucose [1, 3]: 62.5%
- % of Parental GDP-fucose [1, 4]: 270%
- % Fucosylated Glycans [2, 3]: 45%
- % Fucosylated Glycans [2, 4]: 100%
